Data reported in the supplement of paper PMC12463676, “Small-molecule dissolution of stress granules by redox modulation benefits ALS models” (Nature Chemical Biology, 2025).

Columns and labels:
[1] = compound: NC(=O)CCCCC1CCSS1 [lipoamide]; assay: thermal stability z-score vs DMSO; higher = more thermally stabilized by treatment; settings: HeLa, lipoamide concentration 100 µM
Experimental: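 Cellular thermal proteome profiling in HeLa cells. Cells were treated with 100 µM lipoamide for 1 h, with or without 1 mM arsenate for a further 1 h, then heated to ten temperatures (37-66.3 °C), and soluble protein was quantified by TMT mass spectrometry relative to 0.1% DMSO controls. The thermal stability score (sum of log2 fold changes minus the abundance score) was transformed to a z-score; mean of n = 3 experiments.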

[2] = compound: O=[As]([O-])(O)O.[K+] [potassium arsenate]; assay: as above; settings: HeLa; arsenate concentration 1 mM
Experimental: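 Cellular thermal proteome profiling in HeLa cells treated with 1 mM arsenate for 1 h (DMSO pretreatment), heated to ten temperatures (37-66.3 °C). Soluble protein was quantified by TMT mass spectrometry relative to DMSO controls; the thermal stability score was transformed to a z-score; mean of n = 3 experiments.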

[3] = arsenate co-treatment: 1 mM arsenate 1 h
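Note: each temperature applied for 3 min, abundance score taken as mean log2 fold change at the two lowest temperatures, z-score obtained by mean subtraction and division by SD.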

UniProt Q01581, sequence (Q01581 whole entry): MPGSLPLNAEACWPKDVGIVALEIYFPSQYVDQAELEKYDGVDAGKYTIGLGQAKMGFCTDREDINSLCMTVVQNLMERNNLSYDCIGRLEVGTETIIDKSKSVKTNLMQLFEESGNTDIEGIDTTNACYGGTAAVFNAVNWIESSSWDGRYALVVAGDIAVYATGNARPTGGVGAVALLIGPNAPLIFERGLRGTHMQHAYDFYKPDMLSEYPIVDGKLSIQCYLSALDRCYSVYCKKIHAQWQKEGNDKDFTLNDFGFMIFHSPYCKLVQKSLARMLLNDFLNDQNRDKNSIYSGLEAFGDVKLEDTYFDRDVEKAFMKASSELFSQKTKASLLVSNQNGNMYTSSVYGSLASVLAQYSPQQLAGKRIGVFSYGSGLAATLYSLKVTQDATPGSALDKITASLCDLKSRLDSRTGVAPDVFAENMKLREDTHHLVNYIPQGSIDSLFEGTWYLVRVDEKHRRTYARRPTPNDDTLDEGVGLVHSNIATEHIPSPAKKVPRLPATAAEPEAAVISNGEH
UniProt Q15651, sequence (Q15651 whole entry): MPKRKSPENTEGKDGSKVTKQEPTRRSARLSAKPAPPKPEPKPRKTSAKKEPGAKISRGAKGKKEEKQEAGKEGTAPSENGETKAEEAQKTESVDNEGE
UniProt Q13151, sequence (Q13151 whole entry): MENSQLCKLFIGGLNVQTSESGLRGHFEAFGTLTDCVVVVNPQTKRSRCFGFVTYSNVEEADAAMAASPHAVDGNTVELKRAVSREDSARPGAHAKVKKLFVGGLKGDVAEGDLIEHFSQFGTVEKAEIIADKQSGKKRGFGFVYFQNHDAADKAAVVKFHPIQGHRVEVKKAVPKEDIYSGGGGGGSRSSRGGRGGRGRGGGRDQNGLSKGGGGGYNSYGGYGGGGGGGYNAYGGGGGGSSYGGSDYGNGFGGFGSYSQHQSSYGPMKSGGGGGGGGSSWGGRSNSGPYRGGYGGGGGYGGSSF
UniProt O75330, sequence (O75330 whole entry): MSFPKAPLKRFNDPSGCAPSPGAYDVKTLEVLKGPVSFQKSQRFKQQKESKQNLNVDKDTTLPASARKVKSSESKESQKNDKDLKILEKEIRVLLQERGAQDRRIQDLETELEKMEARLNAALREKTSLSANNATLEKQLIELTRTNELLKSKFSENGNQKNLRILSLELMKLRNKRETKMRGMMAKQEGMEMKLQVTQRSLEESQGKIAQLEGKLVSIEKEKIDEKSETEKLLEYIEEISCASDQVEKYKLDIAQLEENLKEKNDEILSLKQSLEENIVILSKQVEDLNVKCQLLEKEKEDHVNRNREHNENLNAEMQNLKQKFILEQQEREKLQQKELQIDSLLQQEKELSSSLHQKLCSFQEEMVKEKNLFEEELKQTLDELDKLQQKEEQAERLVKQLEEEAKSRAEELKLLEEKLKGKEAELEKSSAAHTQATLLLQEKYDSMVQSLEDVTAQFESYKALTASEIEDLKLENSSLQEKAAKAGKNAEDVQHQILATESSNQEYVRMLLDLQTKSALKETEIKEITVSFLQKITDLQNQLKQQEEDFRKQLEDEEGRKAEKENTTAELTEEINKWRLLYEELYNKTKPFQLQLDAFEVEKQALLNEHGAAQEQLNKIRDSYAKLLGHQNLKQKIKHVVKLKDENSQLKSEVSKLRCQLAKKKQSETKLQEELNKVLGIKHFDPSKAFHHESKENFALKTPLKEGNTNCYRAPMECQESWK
UniProt O15347, sequence (O15347 whole entry): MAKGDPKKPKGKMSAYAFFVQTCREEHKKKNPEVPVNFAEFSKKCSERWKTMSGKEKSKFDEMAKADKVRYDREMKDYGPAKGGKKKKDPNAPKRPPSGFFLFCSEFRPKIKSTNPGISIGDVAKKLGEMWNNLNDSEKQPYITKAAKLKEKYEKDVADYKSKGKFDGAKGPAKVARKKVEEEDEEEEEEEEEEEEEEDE
UniProt Q9UJC3, sequence (Q9UJC3 whole entry): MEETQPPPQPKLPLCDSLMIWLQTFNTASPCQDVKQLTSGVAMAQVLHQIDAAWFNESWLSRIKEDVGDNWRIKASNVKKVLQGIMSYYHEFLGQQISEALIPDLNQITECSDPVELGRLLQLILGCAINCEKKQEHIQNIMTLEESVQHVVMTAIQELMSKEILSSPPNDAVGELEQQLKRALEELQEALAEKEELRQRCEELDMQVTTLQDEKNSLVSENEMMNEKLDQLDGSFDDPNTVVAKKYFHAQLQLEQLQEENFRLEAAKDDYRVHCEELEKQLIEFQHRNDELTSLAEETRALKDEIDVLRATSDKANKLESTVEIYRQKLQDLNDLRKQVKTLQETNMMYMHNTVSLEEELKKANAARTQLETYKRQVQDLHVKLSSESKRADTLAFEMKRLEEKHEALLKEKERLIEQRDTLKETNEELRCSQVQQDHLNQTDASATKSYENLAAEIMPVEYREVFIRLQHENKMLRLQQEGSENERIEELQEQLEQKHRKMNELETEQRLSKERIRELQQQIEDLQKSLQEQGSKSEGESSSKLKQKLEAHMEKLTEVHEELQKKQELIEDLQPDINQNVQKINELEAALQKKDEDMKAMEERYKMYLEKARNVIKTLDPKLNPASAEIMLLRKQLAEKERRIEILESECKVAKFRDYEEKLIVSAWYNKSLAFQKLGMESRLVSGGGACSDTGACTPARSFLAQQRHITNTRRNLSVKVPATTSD
UniProt Q9BUJ2, sequence (Q9BUJ2 whole entry): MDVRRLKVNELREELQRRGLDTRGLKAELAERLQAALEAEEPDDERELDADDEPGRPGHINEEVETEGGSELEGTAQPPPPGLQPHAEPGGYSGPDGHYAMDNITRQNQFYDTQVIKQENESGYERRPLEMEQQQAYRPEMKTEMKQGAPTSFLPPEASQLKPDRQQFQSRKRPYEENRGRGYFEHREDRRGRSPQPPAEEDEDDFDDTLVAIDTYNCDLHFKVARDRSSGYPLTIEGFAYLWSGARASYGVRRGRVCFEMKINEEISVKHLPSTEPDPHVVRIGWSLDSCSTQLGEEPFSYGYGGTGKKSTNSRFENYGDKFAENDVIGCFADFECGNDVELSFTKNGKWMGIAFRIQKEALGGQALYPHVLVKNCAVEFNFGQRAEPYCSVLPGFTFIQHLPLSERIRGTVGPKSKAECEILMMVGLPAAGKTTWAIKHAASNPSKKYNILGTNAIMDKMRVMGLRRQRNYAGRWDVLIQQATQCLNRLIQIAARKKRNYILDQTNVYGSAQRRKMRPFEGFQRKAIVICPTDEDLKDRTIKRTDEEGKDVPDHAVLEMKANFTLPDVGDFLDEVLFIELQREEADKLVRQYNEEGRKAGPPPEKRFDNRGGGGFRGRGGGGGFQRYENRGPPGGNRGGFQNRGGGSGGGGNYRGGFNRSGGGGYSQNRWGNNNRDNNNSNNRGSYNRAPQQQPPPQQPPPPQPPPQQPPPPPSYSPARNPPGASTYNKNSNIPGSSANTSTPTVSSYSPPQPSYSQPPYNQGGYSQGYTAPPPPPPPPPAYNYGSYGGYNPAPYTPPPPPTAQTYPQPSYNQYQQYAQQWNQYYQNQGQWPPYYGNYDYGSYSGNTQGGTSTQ
UniProt Q14103, sequence (Q14103 whole entry): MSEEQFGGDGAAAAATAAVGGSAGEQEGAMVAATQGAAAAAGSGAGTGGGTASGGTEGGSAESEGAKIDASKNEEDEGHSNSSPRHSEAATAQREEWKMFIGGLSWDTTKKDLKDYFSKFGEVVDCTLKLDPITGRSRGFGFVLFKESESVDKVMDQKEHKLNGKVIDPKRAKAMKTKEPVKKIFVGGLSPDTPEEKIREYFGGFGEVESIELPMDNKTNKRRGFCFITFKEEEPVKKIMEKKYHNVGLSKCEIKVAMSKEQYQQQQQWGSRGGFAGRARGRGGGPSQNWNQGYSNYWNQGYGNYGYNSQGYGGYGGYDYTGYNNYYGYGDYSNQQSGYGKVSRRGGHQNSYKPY
UniProt P51991, sequence (P51991 whole entry): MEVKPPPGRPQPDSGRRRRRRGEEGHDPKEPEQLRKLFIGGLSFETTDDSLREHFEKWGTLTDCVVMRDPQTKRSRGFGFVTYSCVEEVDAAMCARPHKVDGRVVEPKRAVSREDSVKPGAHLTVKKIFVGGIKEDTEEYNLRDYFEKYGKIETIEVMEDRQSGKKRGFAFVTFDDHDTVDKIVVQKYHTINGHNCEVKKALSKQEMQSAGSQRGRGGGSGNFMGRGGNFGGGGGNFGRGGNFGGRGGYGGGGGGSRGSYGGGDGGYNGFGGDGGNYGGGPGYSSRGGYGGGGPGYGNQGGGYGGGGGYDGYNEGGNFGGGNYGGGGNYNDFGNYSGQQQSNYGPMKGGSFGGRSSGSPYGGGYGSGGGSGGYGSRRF
UniProt P82970, sequence (P82970 whole entry): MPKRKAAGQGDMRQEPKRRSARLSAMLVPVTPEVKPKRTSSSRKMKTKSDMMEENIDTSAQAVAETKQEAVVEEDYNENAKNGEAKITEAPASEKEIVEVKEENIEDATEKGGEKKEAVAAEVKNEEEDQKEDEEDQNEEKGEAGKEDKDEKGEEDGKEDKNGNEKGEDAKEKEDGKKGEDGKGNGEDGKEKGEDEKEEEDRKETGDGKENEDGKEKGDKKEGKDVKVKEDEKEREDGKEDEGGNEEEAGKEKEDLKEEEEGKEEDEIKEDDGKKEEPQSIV
UniProt P07910, sequence (P07910 whole entry): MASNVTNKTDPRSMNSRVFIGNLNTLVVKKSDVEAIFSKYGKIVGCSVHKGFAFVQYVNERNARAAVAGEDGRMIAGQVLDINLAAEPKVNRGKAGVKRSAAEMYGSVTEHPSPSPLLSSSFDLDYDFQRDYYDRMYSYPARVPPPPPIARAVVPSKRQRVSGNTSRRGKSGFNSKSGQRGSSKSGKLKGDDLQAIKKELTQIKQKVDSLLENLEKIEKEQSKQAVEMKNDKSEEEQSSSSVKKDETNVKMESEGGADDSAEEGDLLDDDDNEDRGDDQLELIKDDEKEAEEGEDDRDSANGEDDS
UniProt P05114, sequence (P05114 whole entry): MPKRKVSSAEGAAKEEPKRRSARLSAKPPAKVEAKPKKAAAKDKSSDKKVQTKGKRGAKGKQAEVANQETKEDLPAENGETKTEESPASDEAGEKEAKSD

Target	thermal stability z-score [1, 3]	thermal stability z-score ([1]; arsenate co-treatment: none)	thermal stability z-score [2]
HMGB3 (UniProt O15347)	0.138	0.323	0.0296
HMGCL (UniProt P35914)	1.01	0.651	5.41
HMGCS1 (UniProt Q01581)	1.34	0.0808	0.164
HMGN1 (UniProt P05114)	0.242	0.681	-0.289
HMGN2 (UniProt P05204)	1.04	0.752	0.0894
HMGN3 (UniProt Q15651)	1.36	0.402	0.493
HMGN5 (UniProt P82970)	-0.141	-0.134	-0.172
HMMR (UniProt O75330)	-0.103	0.233	0.594
HMOX1 (UniProt P09601)	-0.0402	-0.011	-0.107
HMOX2 (UniProt P30519)	0.676	1.34	0.895
HN1 (UniProt Q9UK76)	1.68	1.13	0.518
HN1L	0.978	0.827	0.214
HNRNPA0 (UniProt Q13151)	-1.04	-0.776	-0.778
HNRNPA1 (UniProt P09651)	-1.06	-1.24	-1.94
HNRNPA2B1 (UniProt P22626)	0.93	0.512	0.0566
HNRNPA3 (UniProt P51991)	0.238	0.437	-0.49
HNRNPAB (UniProt Q99729)	0.89	0.554	-0.447
HNRNPC (UniProt P07910)	2.24	1.04	0.94

Target	thermal stability z-score [1, 3]	thermal stability z-score ([1]; arsenate co-treatment: none)	thermal stability z-score [2]
HNRNPD (UniProt Q14103)	0.285	-0.223	-0.562
HNRNPDL (UniProt O14979)	0.895	0.34	-1.85
HNRNPF (UniProt P52597)	-0.401	-0.136	-0.208
HNRNPH1 (UniProt P31943)	-0.365	0.482	-0.9
HNRNPH2 (UniProt P55795)	-0.319	-0.0126	-0.224
HNRNPH3 (UniProt P31942)	-0.175	0.0351	-0.243
HNRNPK (UniProt P61978)	-0.316	0.559	-1.69
HNRNPL (UniProt P14866)	0.204	0.05	-2.57
HNRNPLL|HNRPLL	-0.126	-0.082	-0.917
HNRNPM (UniProt P52272)	-0.523	-0.135	-1.87
HNRNPR (UniProt O43390)	0.306	-0.456	-1.96
HNRNPU (UniProt Q00839)	0.572	1.39	0.509
HNRNPUL1 (UniProt Q9BUJ2)	0.162	0.44	0.283
HNRNPUL2 (UniProt Q1KMD3)	0.105	0.057	-0.392
HOMER1 (UniProt Q86YM7)	0.64	0.353	1.54
HOMER3 (UniProt Q9NSC5)	0.5	0.526	0.462
HOOK1 (UniProt Q9UJC3)	-1.15	-0.591	-0.199
